# ChEMBL document CHEMBL1157539, “Thousands of chemical starting points for antimalarial lead identification” (Nature, 2010)
# Tested on: Plasmodium falciparum
# Assay: GSK_TCMDC: Inhibition of Plasmodium falciparum 3D7 in whole erythrocytes, using parasite LDH activity as an index of growth.
# Assay type: functional, organism-based
# Settings: not given
row,Compound,XC50
1,O=C(Nc1ccccc1Cl)NC1CCC(CN2CCC(c3c[nH]c4ccccc34)CC2)CC1 (configuration not stated),753 nM

# Same assay, conditions: Plasmodium falciparum, 3D7
row,Compound,XC50
1,O=C(Nc1cc(Cl)cc(Cl)c1)Nc1ccccc1C(=O)NC1CCCCC1,749 nM
2,Cc1n[nH]c2ccc(-c3cc(OC[C@@H](N)Cc4ccccc4)cnc3-c3ccccc3OCc3cccc(F)c3)cc12,1220 nM
3,C[C@H](CNc1ccnc(Nc2ccc3[nH]c(=O)[nH]c3c2)n1)c1ccccc1,1310 nM
4,COCCNCc1cccc(C#Cc2cc3ncnc(Nc4ccc(OCc5cccc(F)c5)c(Cl)c4)c3s2)n1,739 nM
5,N#CCCn1nc(-c2ccc(Cl)cc2)c2c(c1=O)CCCC2,892 nM
6,C=C[C@H]1CN2CC[C@H]1C[C@@H]2[C@@H](O)c1ccnc2ccccc12 [CINCHONINE],766 nM
7,COc1cc2nc(NCC3CCN(c4nc(N)c5cc(OC)c(OC)cc5n4)CC3)nc(N)c2cc1OC,776 nM
8,COc1ccc(C2NCCc3c2[nH]c2ccccc32)cc1CN1CCN(c2ccc(F)cc2)CC1 (configuration not stated),776 nM
9,c1ccc(Oc2ccc(Nc3ccnc4cc(-c5ccc(CN6CCOCC6)o5)ccc34)cc2)nc1,906 nM
10,COc1ccccc1N1CCN(Cc2cc(C(C)C)c(C)cc2O)CC1,572 nM
11,CCCCCN1CCCC(NS(=O)(=O)c2ccc(C(=O)Nc3cccc(C(F)(F)F)c3)cc2)C1 (configuration not stated),795 nM
12,COc1ccc(NC(=O)/C=C/c2ccc(Oc3ccccc3Cl)c([N+](=O)[O-])c2)cc1OCCN(C(C)C)C(C)C,883 nM
13,O=C(NC1CCC(CN2CCC(c3c[nH]c4ccccc34)CC2)CC1)c1ccc(-c2cc(C(F)(F)F)ccc2Cl)o1 (configuration not stated),714 nM
14,CC1(C)NC(N)=NC(=N)N1OCC1CCCCC1,3.2 nM
15,CC(C)c1cc(C(=O)N[C@@H](Cc2ccccc2)[C@H](O)CNC2CCCCC2)cc(N2CCCC2=O)c1,121 nM
16,CC(C)(CNCCOc1ccc(Cl)cc1)c1nc(-c2ccnc(N)n2)c(-c2ccc(Cl)c(O)c2)[nH]1,834 nM
17,COc1ccc(Cn2c(Nc3cccc(C(F)(F)F)c3)nc3cc(C(=O)NCCN4CCCC4)ccc32)cc1Cl,830 nM
18,COc1ccc(-c2cccc(NC(=O)c3ccc(Cl)cc3)c2)cc1CN1CCCN(C)CC1,387 nM
19,Nc1nc(N)c2c(Sc3ccccc3)cccc2n1,645 nM
20,Cc1cc(N)c2cc(NC(=O)/C=C/c3ccccc3Cl)ccc2n1,405 nM
21,COc1ccc(-c2cccc(NC(=O)c3ccccc3)c2)cc1CN1CCCN(C)CC1,733 nM
22,Cc1nnsc1C(=O)Nc1cccc(-c2ccc(-c3nc4cccc(C)c4[nH]3)s2)c1,1120 nM
23,Cc1cc(OCCCN2CCCCC2)ccc1NC(=O)COc1ccc(Cl)cc1C(=O)c1cc(C#N)cc(C(F)(F)F)c1,1030 nM
24,O=C(Nc1ccc(-c2cccc(-c3nc4ccccc4[nH]3)c2)cc1)Nc1ccc(F)c(F)c1F,182 nM

row,Compound,XC50
1,NCCCNc1nccc(N2CCc3ncnc(Nc4ccc(OCc5cccc(F)c5)c(Cl)c4)c3C2)n1,832 nM
2,CCC(C)(C)c1ccc(OCC(O)CN2CCCCC2)c(C(C)(C)CC)c1 (configuration not stated),1300 nM
3,Cc1cc(NCC2CCN(CC3CCCCC3)C2)nc(Nc2ccc(Cl)cc2)n1 (configuration not stated),739 nM
4,CC(C)(CNCc1ccccc1)c1nc(-c2ccc(Cl)c(O)c2)c(-c2ccncc2)[nH]1,537 nM
5,CC(C)(C)c1ccc2[nH]c(-c3ccc(/C=C/C(=O)NCc4ccc(Cl)c(Cl)c4)cc3)nc2c1,35.4 nM
6,O=C(Nc1ccccc1Cl)NC1CCC(CN2CCC(c3c[nH]c4ccccc34)CC2)CC1 (configuration not stated),803 nM
7,Nc1nc(Nc2ccc(Cl)cc2)nc2ccccc12,732 nM
8,COc1cc2nc(NCCc3ccccc3)nc(NC(C)c3ccccc3)c2cc1OC (configuration not stated),281 nM
9,CN(C)Cc1ccc2nc(-c3cccc(Cc4cc(Cl)ccc4OCc4ccc(Cl)cc4F)n3)[nH]c2c1,1130 nM
10,Cc1cccc2nc(-c3cccc(-c4ccc(CNCCCN5CCCC5=O)cc4)c3)[nH]c12,956 nM
11,Cc1ccc(C[C@@H](C)NC[C@H](O)c2cccc(C(F)(F)F)c2)cc1,876 nM
12,Cc1ccccc1-c1cc(=O)c2cc(NC(=O)c3cccs3)ccc2o1,218 nM
13,Cc1noc(-c2ccccc2)c1CN1CCCC2(CC(C(=O)NCc3cccc(F)c3F)=NO2)C1 (configuration not stated),1010 nM
14,CCOc1ccc2ccccc2c1CNCCCCCCNCc1c(OCC)ccc2ccccc12,576 nM
15,O=C(NCCCCN1CCN(c2ccc3c(c2)CCC3)CC1)c1ccc(NC(=O)c2ccc(Cl)cc2)cc1,677 nM
16,COCCNCc1ccc(-c2ccc3c(Nc4ccc(F)cc4Cl)ccnc3c2)o1,209 nM
17,O=c1cc(NCCCNCc2cc(Br)ccc2F)[nH]c2ccccc12,854 nM
18,COc1ccc2nccc(N/N=C/c3ccccc3[N+](=O)[O-])c2c1,65.9 nM
19,CCN(CCCN1CCCCC1)c1cc(C)nc(Nc2ccc(C)c(Cl)c2)n1,207 nM
20,C#CC(C)(CO)N1CCCC1 (configuration not stated),379 nM
21,COc1cc(O)c2c(=O)c(OC)c(-c3cccc(Cl)c3OC3O[C@H](CO)[C@@H](O)[C@H](O)[C@H]3O)oc2c1OC (some centres not stated),774 nM
22,CCn1ccc2c(N3CCCS3(=O)=O)cc(C(=O)N[C@@H](Cc3ccccc3)[C@H](O)CNC(C)(C)c3cccc(OC)c3)cc21,41.6 nM
23,Cn1nc(-c2ccc(S(=O)(=O)N3CCC(CN4CCC(c5c[nH]c6ccccc56)CC4)CC3)s2)cc1C(F)(F)F,1090 nM
24,COc1ccc2nc(/N=C3\NC(c4ccccn4)(c4ccccn4)C(=O)N3C)[nH]c2c1,586 nM

row,Compound,XC50
1,O=C(/C=C/c1ccc(Cl)c(Cl)c1)NC1CCN(Cc2cccc(O)c2)CC1,880 nM
2,CCCCCN1CCC(NC(=O)c2ccc(C(=O)Nc3ccc(C(C)C)cc3)cc2)CC1,845 nM
3,CC(Cc1ccc(NC(=O)c2ccc(CNCc3ccccc3)cc2)cc1)N(CCc1cccc(Cl)c1)C(=O)OC(C)(C)C (configuration not stated),974 nM
4,COc1ccc(CNCc2cccc(-c3cccc(-c4nc5ccccc5[nH]4)c3)c2)cc1,368 nM
5,c1ccc2c(c1)CN(CC1CC1)CC1(CCN(Cc3c[nH]c4cnccc34)CC1)O2,900 nM
6,CCN(CCCN1CCCCC1)c1cc(C)nc(Nc2cc(Br)ccc2C)n1,405 nM
7,CC(=O)Nc1nc(C(=O)Nc2ccc(-c3cccc(-c4nc5cc(F)ccc5[nH]4)c3)cc2)cs1,292 nM
8,COc1cccc(C(=O)Nc2sc3c(c2C(N)=O)CCCC3)c1OC,932 nM
9,O=C(NCCCCN1CCC(c2ccc3c(c2OCc2ccncc2)CCCC3)CC1)c1ccc(-c2ccc(C(F)(F)F)cc2)cc1,168 nM
10,COc1ccc(CNC2Cc3ccccc3C2)cc1-c1ccc(S(=O)(=O)NCCN2CCCC2)cc1,582 nM
11,COc1ccc(CNCc2cccc(-c3cccc(-c4nc5cc(C(F)(F)F)ccc5[nH]4)c3)c2)cc1,196 nM
12,NCc1ccc(CNCc2cccc(-c3cccc(-c4nc5ccccc5[nH]4)c3)c2)cc1,489 nM
13,O=C(NCCN1CCCC1)c1cc(-c2ccc(Cl)c(O)c2)c(-c2ccncc2)o1,1630 nM
14,O=C(O)c1ccc(-c2cnc3ccc(NC4CCC(O)CC4)nn23)cc1 (configuration not stated),995 nM
15,CC(=O)Nc1cccc(Nc2nccc(-c3c(-c4cccc(NC(=O)c5c(F)cccc5F)c4)nn4ncccc34)n2)c1,184 nM
16,CN(C)c1cccc(-c2cnc3ccc(NCc4cccc(Cl)c4)nn23)c1,700 nM
17,CC(C)(C)c1ccc(/C=C/C(=O)NCCCCCN2CCC(c3c[nH]c4ccccc34)CC2)cc1,1090 nM
18,O=c1cc(NCCCNCc2cc(Cl)cc(Cl)c2OCc2ccc(Cl)cc2)[nH]c2ccccc12,693 nM
19,O=C(NCCCCCN1CCC(c2c[nH]c3ccccc23)CC1)Nc1ccc(Cl)c(Cl)c1,920 nM
20,Cc1ccc(O)cc1Nc1ccnc2cc(-c3csc(CN4CCN(C)CC4)n3)ccc12,597 nM
21,NC1=NC(c2ccccc2)(c2ccccc2)C(=O)N1CC1CCC1,753 nM
22,O=[N+]([O-])c1cccc(Nc2nccc(-c3cnn4ncccc34)n2)c1,184 nM
23,COc1ccc(CNC2Cc3ccccc3C2)cc1-c1ccc(S(=O)(=O)NCc2cccnc2)s1,1110 nM
24,Cc1cc(N[C@@H](CC(C)C)C(=O)NCc2cccc(F)c2)nc(NCCc2ccc(F)cc2)n1,1470 nM

row,Compound,XC50
1,CN1CCC(NCc2cccc(-c3ccc(S(=O)(=O)NCCN4CCCC4)s3)c2)CC1,928 nM
2,COc1cccc(Nc2nc(C)cc(NC3CCN(Cc4ccccc4)CC3)n2)c1,693 nM
3,O=C(/C=C/c1cccc(Cl)c1)Nc1ccc2nc(CN3CCCC3)ccc2c1,255 nM
4,C=CCN1C(=O)C(C(C)=O)=C(O)C1c1ccccc1 (configuration not stated),53.8 nM
5,Cc1cc(NC2CCN(CC3CCCCC3)C2)nc(Nc2ccc(Cl)cc2)n1 (configuration not stated),404 nM
6,CN(C)CCOc1cc(NC(=O)Nc2cccc3c(-c4ccncc4)cccc23)ccc1I,734 nM
7,CN1CCN(CCc2ccc(N/C=C3\C(=O)Nc4ccc5ncccc5c43)cc2)CC1,325 nM
8,Cn1c2c(c3ccccc31)CN(CCC1(c3ccc(Cl)c(Cl)c3)CN(C(=O)c3ccccc3)CCO1)CC2 (configuration not stated),311 nM
9,O=C(/C=C/c1ccc(Cl)c(Cl)c1)N1CCC(CN2CCC(Cc3c[nH]c4ccccc34)CC2)CC1,674 nM
10,CCc1cn(C)c2c(N3CCCC3=O)cc(C(=O)N[C@@H](Cc3ccccc3)[C@H](O)CNC3CCCCC3)cc12,118 nM
11,CCN(CCNC(=O)C1CCN(c2cc(-c3cccc(C)c3)ncn2)CC1)Cc1ccccc1,171 nM
12,COc1ccc(F)cc1-c1ccccc1CNC(=O)c1cnn(-c2ccc([N+](=O)[O-])cc2)c1C(F)(F)F,596 nM
13,COC(=O)c1ccc(CN2CCC(N(Cc3cccc(Oc4ccccc4)c3)S(=O)(=O)c3ccc(NC(C)=O)cc3)CC2)cc1,1050 nM
14,COc1ccccc1C1CC(c2ccccc2)=NN1C(=O)c1ccccc1 (configuration not stated),296 nM
15,Cc1[nH]c(C)c(-c2ccc(CCc3ccc(F)cc3F)cc2)c(=O)c1Br,5.29 nM
16,C/C=C1\CN2CC[C@H]1C[C@@H]2[C@@H](O)c1ccnc2ccc(O)cc12,245 nM
17,CC1(C)CCCC(=Cc2ccc(Br)cc2)C1(O)Cn1ccnc1 (configuration not stated),791 nM
18,OCCNc1nc(Nc2cccc(O)c2)nc2ccccc12,389 nM
19,Fc1ccc2[nH]c(-c3ccc(-c4ccc(CNCCN5CCNCC5)cc4)cc3)nc2c1,850 nM
20,COc1cccc(C(=O)Nc2ccc(S(=O)(=O)c3cc4c(cc3OC)CCN(C)CC4)cc2)c1,1100 nM
21,CCNc1cc(C(=O)N[C@@H](Cc2ccccc2)[C@H](O)CN[C@H](C)C(C)(C)C)cc(N2CCCCS2(=O)=O)c1,820 nM
22,Cc1ccc(-n2c(C)nc3c(Nc4ccc(-c5ccncc5)cc4)ncnc32)c(C)c1,101 nM
23,COc1ccc(Nc2ncc3c(-c4cccc(NC(=O)c5ccc(N)cc5)c4)c[nH]c3n2)cc1OC,975 nM
24,Cc1c(Cl)ccc2sc(N3CCN(C(=O)c4ccc([N+](=O)[O-])o4)CC3)nc12,745 nM
